Patent US5175146A, “Synthetic calcitonin peptides” (Vical, Inc., priority 1990, dated 1992)
Starred links: 1 amine or outer side, 2 acyl side, 3 side chain; linkers in the order of their positions; H or OH if unused. Positions of bridges follow the written chain, without caps; N, C: chain ends. Residues, ends and D or L forms follow the SMILES beside them. Suc = O=C(CCC(=O)[*:2])[*:1]

Tests used:
[1] = parameters: species or system rabbits; conditions: rabbit, in vivo
Method: Peptides of the formula I when administered intranasally show hypocalcemic effects in animals. In order to determine their bioavailability, the effect of hypocalcemic peptides administered intranasally were compared with those administered by intravenous injection, as described below. Nasal powdery formulations containing 100 IU per 30 mg of dry powder were prepared substantially as described in U.S. Pat. No. 4,613,500. Peptides were administered intranasally at a dose of 2.8 IU/kg or intravenously at a dose of 1.75 IU/kg to rabbits. Blood samples were withdrawn before administering the peptides and 0.5, 1, 2, 4, and 6 hours after administration, and serum calcium levels determined. The ratios of areas under the curve of hypocalcemic effect (0 to 6 hours) after nasal and intravenous administration are calculated.

[2] = system: Male rats (Sprague Dawley); assay: Hypocalcemic activity: serum Ca++ decrease in rats after subcutaneous injection; type: in vivo; conditions: rat serum
Method: Calcitonins lower the blood calcium of immature rats by inhibiting bone resorption. Their potency can be assessed by determining the micrograms of peptide required to reduce the serum calcium by ten percent. The results of in vivo tests of the biological activities of synthetic calcitonin peptides of the invention are shown in Example 37.
This activity was measured as follows: Male rats (Sprague Dawley) weighing approximately 100 grams were fasted overnight. Peptides according to the invention, comprising various potency-enhancing modifications, were dissolved in pH 7.4 PBS buffer at a concentration range of 0.001 microgram to about 100 microgram per ml. The rats were anesthetized with Metophane10, weighed and injected subcutaneously with the peptide solutions in a dose of from 0.001 to about 100 microgram per kilogram of body weight. […] Calcium-lowering potencies of the synthetic peptides can be calculated in International units (IU) per mg as described by the method of M. Kumar et al., J. Endocrinology 33:469-475 (1964). According to this test, 10 IU is defined as the amount of peptide necessary for lowering Ca++ concentration by 10% in 100 gram rats one hour after subcutaneous injection. Serum Ca++ levels in the rat after subcutaneous injection of various peptides are summarized below: […]

Compound | Ratio of Nasal:i.v. Bioavailability [1] [%] | Ca++ Decrease ([2]; dose 1 ug/kg s.c., 1 hr) [mg/dL] | Ca++ Decrease ([2]; dose 10 ug/kg s.c., 1 hr) [mg/dL] | Ca++ Decrease ([2]; dose 100 ug/kg s.c., 1 hr) [mg/dL] | further results
[(LeuCys)^1, Leu^8 ]-eCT | 37.5 | 3.35 | – | – | Ca++ Decrease ([2]; dose 0.03 ug/kg s.c., 1 hr): 1.24 mg/dL
[(Oleyl-Ser)-5,Ala-7]-cCT(5-32) | – | 0.47 | 0.60 | 1.15 | –
CC(C)C[C@H](NC(=O)[C@H](CC(C)C)NC(=O)[C@@H]1CCCCNC(=O)CCC(=O)N[C@@H](CO)C(=O)N[C@@H](CC(N)=O)C(=O)N[C@@H](CC(C)C)C(=O)N[C@@H](CO)C(=O)N[C@@H]([C@@H](C)O)C(=O)N1)C(=O)NCC(=O)N[C@@H](CCCCN)C(=O)N[C@@H](CC(C)C)C(=O)N[C@@H](CO)C(=O)N[C@@H](CCC(N)=O)C(=O)N[C@@H](CCC(=O)O)C(=O)N[C@@H](CC(C)C)C(=O)N[C@@H](Cc1c[nH]cn1)C(=O)N[C@@H](CCCCN)C(=O)N[C@@H](CC(C)C)C(=O)N[C@@H](CCC(N)=O)C(=O)N[C@H](C(=O)N[C@@H](Cc1ccc(O)cc1)C(=O)N1CCC[C@H]1C(=O)N[C@@H](CCCNC(=N)N)C(=O)N[C@H](C(=O)N[C@@H](CC(=O)O)C(=O)N[C@H](C(=O)NCC(=O)N[C@@H](C)C(=O)NCC(=O)N[C@H](C(=O)N1CCC[C@H]1C(N)=O)[C@@H](C)O)C(C)C)[C@@H](C)O)[C@@H](C)O (SNLSTKLLGKLSQELHKLQTYPRTDVGAGTP-NH2; linker N-6 via Suc) | 14.3 | – | – | – | –
[(Chx-Ser)^5, Ala^7, des-^22 ]-Avian Calcitonin (5-32) [[(CHX-Ser)-5,Ala-7,des-22]-cCT(5-32)] | – | 0.32 | 1.42 | 1.82 | –
[(SerThr)2 -Lys-7]-cCT(7-32) | – | 2.09 | 2.75 | 2.75 | –
CC(C)C[C@H](NC(=O)[C@H](CC(C)C)NC(=O)[C@@H]1CSSC[C@H](N)C(=O)N[C@@H](CO)C(=O)N[C@@H](CC(N)=O)C(=O)N[C@@H](CC(C)C)C(=O)N[C@@H](CO)C(=O)N[C@@H]([C@@H](C)O)C(=O)N1)C(=O)NCC(=O)N[C@@H](CCCCN)C(=O)N[C@@H](CC(C)C)C(=O)N[C@@H](CO)C(=O)N[C@@H](CCC(N)=O)C(=O)N[C@@H](CCC(=O)O)C(=O)N[C@@H](CC(C)C)C(=O)N[C@@H](Cc1c[nH]cn1)C(=O)N[C@@H](CCCCN)C(=O)N[C@@H](CC(C)C)C(=O)N[C@@H](CCC(N)=O)C(=O)N[C@H](C(=O)N[C@@H](Cc1ccc(O)cc1)C(=O)N1CCC[C@H]1C(=O)N[C@@H](CCCNC(=N)N)C(=O)N[C@H](C(=O)N[C@@H](CC(=O)O)C(=O)N[C@H](C(=O)NCC(=O)N[C@@H](C)C(=O)NCC(=O)N[C@H](C(=O)N1CCC[C@H]1C(N)=O)[C@@H](C)O)C(C)C)[C@@H](C)O)[C@@H](C)O [(Leu^8)-eCT] (H-CSNLSTCLLGKLSQELHKLQTYPRTDVGAGTP-NH2; disulfide 1-7) | 28.6 | – | – | – | –
[(Ac0AOA-SerThr)2 -Lys-7]-cCT(7-32) | – | 2.29 | 2.45 | 2.34 | Ca++ Decrease ([2]; dose 0.1 ug/kg s.c., 1 hr): 0.42 mg/dL; Ca++ Decrease ([2]; dose 0.4 ug/kg s.c., 1 hr): 0.45 mg/dL
[(D-Ala-Ada-Ser)^5, Ala^7, des-^22 ]-Avian Calcitonin (5-32) | – | 0.32 | 1.42 | 1.82 | –
CC[C@H](C)[C@H](NC(=O)[C@H](C)NC(=O)[C@@H](NC(=O)[C@H](CCC(N)=O)NC(=O)[C@@H]1CCCN1C(=O)[C@H](Cc1ccccc1)NC(=O)[C@@H](NC(=O)[C@H](Cc1c[nH]cn1)NC(=O)[C@H](Cc1ccccc1)NC(=O)[C@H](CCCCN)NC(=O)[C@H](CC(N)=O)NC(=O)[C@H](CC(C)C)NC(=O)[C@H](CC(=O)O)NC(=O)[C@H](CCC(N)=O)NC(=O)[C@@H](NC(=O)[C@H](CC(C)C)NC(=O)[C@@H](NC(=O)CNC(=O)[C@H](CC(C)C)NC(=O)[C@H](CC(C)C)NC(=O)[C@@H]1CSSC[C@H](N)C(=O)NCC(=O)N[C@@H](CC(N)=O)C(=O)N[C@@H](CC(C)C)C(=O)N[C@@H](CO)C(=O)N[C@@H]([C@@H](C)O)C(=O)N1)[C@@H](C)O)[C@@H](C)O)[C@@H](C)O)[C@@H](C)O)C(=O)NCC(=O)N[C@H](C(=O)NCC(=O)N[C@@H](C)C(=O)N1CCC[C@H]1C(N)=O)C(C)C [[Leu-8,12,16]-hCT, [Leu^8,12,16]-hCT] (H-CGNLSTCLLGTLTQDLNKFHTFPQTAIGVGAP-NH2; disulfide 1-7) | 28.0 | – | – | – | –
[(ADA-Ser)-5,Ala-7]-cCT(5-32) | – | 0.19 | 2.83 | – | Ca++ Decrease ([2]; dose 1 ug/kg s.c., 3 hr): 0.14 mg/dL; Ca++ Decrease ([2]; dose 3 ug/kg s.c., 1 hr): 0.33 mg/dL; Ca++ Decrease ([2]; dose 3 ug/kg s.c., 3 hr): 0.21 mg/dL; Ca++ Decrease ([2]; dose 10 ug/kg s.c., 3 hr): 2.98 mg/dL; Ca++ Decrease ([2]; dose 10 ug/kg s.c., 6 hr): 2.10 mg/dL
[(Chx-Ser-Thr)2 -Lys^7, Leu^8 ]-Eel Calcitonin (7-32) [[(ChxSerThr)2 -Lys^7, Leu^8]-eCT(7-32)] | 17.4 | 2.42 | – | – | Ca++ Decrease ([2]; dose 0.01 ug/kg s.c., 1 hr): 0.13 mg/dL; Ca++ Decrease ([2]; dose 0.03 ug/kg s.c., 1 hr): 0.24 mg/dL; Ca++ Decrease ([2]; dose 0.1 ug/kg s.c., 1 hr): 0.39 mg/dL; Ca++ Decrease ([2]; dose 0.32 ug/kg s.c., 1 hr): 1.09 mg/dL
